From patent US3974268A, “Bone-seeking technetium-99m imidodiphosphonate complex” (priority 1975, dated 1976)
Read-outs that look alike come from different tables or passages of the source.

Columns and labels:
[1] = cited from earlier work
[2] = Acute toxicity (LD 50/30) by serial injection of graduated doses; type: in vivo; details: mice and rabbits
Protocol: A toxicological study was conducted in both mice and rabbits by serial injection of graduated doses and the acute toxicity of imidodiphosphonate (LD 50/30) was determined to be 45-50 mg imidodiphosphonic acid per kilogram body weight.

[3] = 2 hours, rabbits, derived from Subramanian et al references

Molecule | 99mTc/85Sr ratio calculated from specific concentrations, Average Bone [1, 3] | 99mTc/85Sr ratio calculated from specific concentrations, Blood [1, 3] | 99mTc/85Sr ratio calculated from specific concentrations, Femur [1, 3] | 99mTc/85Sr ratio calculated from specific concentrations, Kidney [1, 3] | 99mTc/85Sr ratio calculated from specific concentrations, Liver [1, 3] | 99mTc/85Sr ratio calculated from specific concentrations, Marrow [1, 3] | 99mTc/85Sr ratio calculated from specific concentrations, Muscle [1, 3] | 99mTc/85Sr ratio calculated from specific concentrations, Pelvis [1, 3] | 99mTc/85Sr ratio calculated from specific concentrations, Spine [1, 3] | 99mTc/85Sr ratio calculated from specific concentrations, Tibia [1, 3] | further results
O=P(O)(O)CN(CCN(CP(=O)(O)O)CP(=O)(O)O)CCN(CP(=O)(O)O)CP(=O)(O)O (99mTc complex, metal not drawn) [DTPMP, Diethylene Triamino Penta (Methylene Phosphonate)] | – | – | – | – | – | – | – | – | – | – | 99mTc/85Sr ratio calculated from specific concentrations, Average Bone ([1]; rabbit, in vivo): 0.467; 99mTc/85Sr ratio calculated from specific concentrations, Blood ([1]; rabbit, in vivo): 0.461; 99mTc/85Sr ratio calculated from specific concentrations, Femur ([1]; rabbit, in vivo): 0.419; 99mTc/85Sr ratio calculated from specific concentrations, Kidney ([1]; rabbit, in vivo): 3.82; 99mTc/85Sr ratio calculated from specific concentrations, Liver ([1]; rabbit, in vivo): 0.544; 99mTc/85Sr ratio calculated from specific concentrations, Marrow ([1]; rabbit, in vivo): 0.547; 99mTc/85Sr ratio calculated from specific concentrations, Muscle ([1]; rabbit, in vivo): 0.221; 99mTc/85Sr ratio calculated from specific concentrations, Pelvis ([1]; rabbit, in vivo): 0.627; 99mTc/85Sr ratio calculated from specific concentrations, Spine ([1]; rabbit, in vivo): 0.415; 99mTc/85Sr ratio calculated from specific concentrations, Tibia ([1]; rabbit, in vivo): 0.384
O=P(O)(O)CN(CCCCCCN(CP(=O)(O)O)CP(=O)(O)O)CP(=O)(O)O (99mTc complex, metal not drawn) [HMDTMP, Hexamethylene Diamino Tetra (Methylene Phosphonate)] | 0.456 | 0.703 | 0.434 | 7.06 | 0.855 | 0.713 | 0.407 | 0.516 | 0.428 | 0.437 | –
O=P(O)(O)OP(=O)(O)O [Pyro Phosphate] | – | – | – | – | – | – | – | – | – | – | 99mTc/85Sr ratio calculated from specific concentrations, Average Bone ([1]; rabbit, in vivo): 0.812; 99mTc/85Sr ratio calculated from specific concentrations, Blood ([1]; rabbit, in vivo): 0.703; 99mTc/85Sr ratio calculated from specific concentrations, Femur ([1]; rabbit, in vivo): 0.710; 99mTc/85Sr ratio calculated from specific concentrations, Kidney ([1]; rabbit, in vivo): 2.81; 99mTc/85Sr ratio calculated from specific concentrations, Liver ([1]; rabbit, in vivo): 0.779; 99mTc/85Sr ratio calculated from specific concentrations, Marrow ([1]; rabbit, in vivo): 0.726; 99mTc/85Sr ratio calculated from specific concentrations, Muscle ([1]; rabbit, in vivo): 0.365; 99mTc/85Sr ratio calculated from specific concentrations, Pelvis ([1]; rabbit, in vivo): 0.918; 99mTc/85Sr ratio calculated from specific concentrations, Spine ([1]; rabbit, in vivo): 0.827; 99mTc/85Sr ratio calculated from specific concentrations, Tibia ([1]; rabbit, in vivo): 0.694
Amino Ethylne Diphosphonate [AEDP] | 0.648 | 0.416 | 0.641 | 3.71 | 0.766 | 0.852 | 0.135 | 0.693 | 0.618 | 0.641 | –
Ethylene Hydroxy Diphosphonate [EHDP] | 0.832 | 0.362 | 0.796 | 3.53 | 0.954 | 0.814 | 0.172 | 0.913 | 0.801 | 0.798 | –
Poly Phosphate | 0.87 | 1.48 | 0.826 | 9.46 | 2.61 | 2.95 | 0.623 | 1.01 | 0.82 | 0.66 | –
imidodiphosphonic acid [imidodiphosphonate] | – | – | – | – | – | – | – | – | – | – | acute toxicity (LD 50/30) [2]: 45-50 mg imidodiphosphonic acid per kilogram body weight
